Measured values published in patent US20110136728A1, “METHODS OF INCREASING BONE FORMATION USING LEPTIN-RELATED PEPTIDES” (priority 2009, published 2011).
No end group written: not given here.

Tested on: ob/ob mouse model
Experiment: Earlier study of OB3 and D-amino acid-substituted OB3 analogs: body weight gain, food and water intake, blood glucose
Format: in vivo
Details: mouse, in vivo
Source text: Single-point D-amino acid substitution was used to study the structure-function relationships of each amino acid residue in OB3, and to increase its efficacy. The restricted domain represented by OB3 contains a functional epitope, which has the ability to mimic at least some of the effects of leptin on energy balance and glucose homeostasis.
The design of peptide ligands involved the introduction of conformational constraints into native sequences by techniques that include, but are not limited to, D-amino acid substitution or cyclization. (Hruby and Bonner, Methods Mol Biol. 35:201-40 (1994)). Systematic replacement of L-amino acids by their D-amino acid isoforms was used to determine the stereostructural requirements of specific residues in a peptide for peptide-receptor interaction, and to assess the contribution of certain secondary structural motifs, e.g., α-helix or β-turn, to the bioactivity of the peptide. (Hruby, Biopolymers 33(7):1073-82 (1993) and Hruby, Life Sci. 52(10):845-55 (1993)). This approach increased peptide resistance to enzymatic hydrolysis, and to enhance the properties of biologically active peptides, including receptor binding, functional potency, and duration of action. (See Fauchere et al., Adv. Drug Res., 23:127-139 (1992); Doherty et al., J. Med. Chem., 36:2585-2594 (1993); Kirby et al., J. Med. Chem., 36:3802-3808 (1993); Morita et al., FEBS Lett., 353:84-88 (1994)).
(See Rozhayskaya-Arena M, et al., Endocrinology 141:2501-2517 (2000); Grasso P et al., Regulatory Pep. 101:123-129 (2001)).

## SCSLPQT [OB3, amino acid residues 116-122 of mouse leptin]
  maximal reduction of blood glucose levels: approximately 100 mg/dl
